According to PubChem BioAssay AID248 (DTP/NCI, 2004):
Toxic doses and inconclusive results are not listed. No stated cut-off is given here; in the data, active means T/C of 150% or more; inactive means T/C below 125%.

Test system: L1210 leukemia ip in BDF1 mice, survival T/C
Test: NCI In Vivo Anticancer Drug Screen. Data for tumor model L1210 Leukemia (intraperitoneal) in B6D2F1 (BDF1) mice
Settings: endpoint: mean survival time, higher = longer survival
Method in brief: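 Antitumor effect is assessed in tumor-bearing animals. Survival in the compound arm is compared with a vehicle-dosed control arm and expressed as their quotient.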

[1] = dose: 100.0 mg/kg/injection, schedule: Q04DX003 (ip), vehicle: Klucel (hydroxypropylcellulose) (HPC)
[2] = dose: 200.0 mg/kg/injection, schedule: Q04DX003 (ip), vehicle: Klucel (hydroxypropylcellulose) (HPC)
[3] = dose: 400.0 mg/kg/injection, schedule: Q04DX003 (ip), vehicle: Klucel (hydroxypropylcellulose) (HPC)
[4] = dose: 100.0 mg/kg/injection, schedule: Q01DX009 (ip), vehicle: Klucel (hydroxypropylcellulose) (HPC)
[5] = dose: 200.0 mg/kg/injection, schedule: Q01DX009 (ip), vehicle: Klucel (hydroxypropylcellulose) (HPC)
[6] = dose: 400.0 mg/kg/injection, schedule: Q01DX009 (ip), vehicle: Klucel (hydroxypropylcellulose) (HPC)

Measured: T/C

Clc1ccccc1/C=C/c1ccccn1
inactive: dose: 6.25 mg/kg/injection, schedule: Q04DX002 (ip), vehicle: DMSO 102 % of control | dose: 12.5 mg/kg/injection, schedule: Q04DX002 (ip), vehicle: DMSO 98 % of control | dose: 25.0 mg/kg/injection, schedule: Q04DX002 (ip), vehicle: DMSO 109 % of control | dose: 100.0 mg/kg/injection, schedule: Q04DX002 (ip), vehicle: DMSO 94 % of control

COc1ccc(-c2nc(SCc3ccccc3)[nH]c(=O)c2CCO)cc1
inactive: [1] 95 % of control | [2] 88 % of control | [3] 93 % of control

N#CCCC1=C(O)CCCC1=O
inactive: dose: 50.0 mg/kg/injection, schedule: Q01DX009 (ip), vehicle: saline with Tween-80 93 % of control | dose: 100.0 mg/kg/injection, schedule: Q01DX009 (ip), vehicle: saline with Tween-80 93 % of control | dose: 200.0 mg/kg/injection, schedule: Q01DX009 (ip), vehicle: saline with Tween-80 97 % of control

COc1cc(-c2ccc(NC(=O)Nc3ccc(C4=NCCN4)cc3)c(OC)c2)ccc1NC(=O)Nc1ccc(C2=NCCN2)cc1
inactive: dose: 15.0 mg/kg/injection, schedule: Q01DX Z (ip), vehicle: carboxymethylcellulose (CMC) 104 % of control | dose: 31.0 mg/kg/injection, schedule: Q01DX Z (ip), vehicle: carboxymethylcellulose (CMC) 98 % of control | dose: 62.5 mg/kg/injection, schedule: Q01DX Z (ip), vehicle: carboxymethylcellulose (CMC) 117 % of control | dose: 125.0 mg/kg/injection, schedule: Q01DX Z (ip), vehicle: carboxymethylcellulose (CMC) 103 % of control | dose: 250.0 mg/kg/injection, schedule: Q01DX Z (ip), vehicle: water 117 % of control | dose: 500.0 mg/kg/injection, schedule: Q01DX Z (ip), vehicle: water 87 % of control

O=C(Nc1ccc(Cl)c(Cl)c1)Oc1ccc(C2CCCCC2)cc1
inactive: [4] 95 % of control | [1] 111 % of control | [5] 95 % of control | [2] 109 % of control | [6] 97 % of control | [3] 101 % of control

O=S(=O)(CBr)C1C2C=CC(C2)C1c1ccccc1 (stereo not drawn)
inactive: dose: 100.0 mg/kg/injection, schedule: Q04DX002 (ip), vehicle: Klucel (hydroxypropylcellulose) (HPC) 106 % of control | dose: 200.0 mg/kg/injection, schedule: Q04DX002 (ip), vehicle: Klucel (hydroxypropylcellulose) (HPC) 106 % of control | dose: 400.0 mg/kg/injection, schedule: Q04DX002 (ip), vehicle: Klucel (hydroxypropylcellulose) (HPC) 97 % of control

Cc1ccc(N=Nc2ccc([N+](=O)[O-])cc2)c([N+](=O)[O-])c1
inactive: dose: 100.0 mg/kg/injection, schedule: Q01DX001 (ip), vehicle: carboxymethylcellulose (CMC) 96 % of control | dose: 200.0 mg/kg/injection, schedule: Q01DX001 (ip), vehicle: carboxymethylcellulose (CMC) 93 % of control | dose: 400.0 mg/kg/injection, schedule: Q01DX001 (ip), vehicle: carboxymethylcellulose (CMC) 96 % of control

CC1CCC(NC(=O)NCCCl)c2ccccc21 (stereo not drawn)
inactive: dose: 20.0 mg/kg/injection, schedule: Q04DX003 (ip), vehicle: Klucel (hydroxypropylcellulose) (HPC) 102 % of control | dose: 40.0 mg/kg/injection, schedule: Q04DX003 (ip), vehicle: Klucel (hydroxypropylcellulose) (HPC) 100 % of control | dose: 80.0 mg/kg/injection, schedule: Q04DX003 (ip), vehicle: Klucel (hydroxypropylcellulose) (HPC) 100 % of control

COc1cc(NCCCCCNC(C)C)c2ncccc2c1
inactive: dose: 5.0 mg/kg/injection, schedule: Q04DX002 (ip), vehicle: saline with Tween-80 100 % of control | dose: 10.0 mg/kg/injection, schedule: Q04DX002 (ip), vehicle: saline with Tween-80 97 % of control | dose: 20.0 mg/kg/injection, schedule: Q04DX002 (ip), vehicle: saline with Tween-80 100 % of control

COc1ccc2c(c1)CCC1=C2CCC2C(=O)OC(=O)C12C (stereo not drawn)
inactive: [4] 98 % of control | [1] 90 % of control | [5] 95 % of control | [2] 98 % of control | [6] 101 % of control | [3] 97 % of control

Cc1[nH]c(=O)[nH]c(=O)c1CCO
inactive: dose: 100.0 mg/kg/injection, schedule: Q01DX001 (ip), vehicle: saline 96 % of control | dose: 200.0 mg/kg/injection, schedule: Q01DX001 (ip), vehicle: saline 102 % of control | dose: 400.0 mg/kg/injection, schedule: Q01DX001 (ip), vehicle: saline 100 % of control
